According to patent EP1171146B1, “PHARMACEUTICAL CO[…] GINKGO BILOBA EXTRACT USEFUL FOR TREATING DEMENTIA” (priority 1999, dated 2000):

How the values were obtained:
[1] = test system: glutathione(GSH) peroxidase; test: Glutathione peroxidase activity after partial ischemia and reperfusion; settings: cerebral cortex; 30 min ischemia, 3 hours reperfusion; 3-week treatment; mean±S.E. (n=6)
[2] = test system: cerebral cortex of ischemic rats; test: Energy metabolites in the cerebral cortex in partial ischemia; settings: 3-week treatment, mean±S.E. (n=6)
[3] = test system: SOD(Superoxide dismutase); test: SOD activity after partial ischemia and reperfusion; type: in vivo, Sprague-Dawley rats; settings: cerebral cortex; 30 min ischemia, 3 hours reperfusion; 3-week treatment; mean±S.E. (n=6)
Protocol: The supernatant was used as sample.
Previously, a test tube containing 2.3 mℓ of phosphate buffer with pH 7.8, 300 µℓ of 0.5 mM Na-xanthine, 100 µℓ of 50 µm K-cyanide and 100 µℓ of 2.4 mM Na-deoxycholate was prepared and kept in a water bath of 25 °C. To this test tube, 300 µℓ of 0.1 mM ferricytochrome and sample were added.
Then. the solution was transferred to a cell, 100 µℓ of xanthine oxidase was added, a sealing tape was placed on the cell and, while closing well with fingers, the cell was carefully shaken to mix. Changes in absorbance were measured and recorded for one minute at the wavelength of 550 nm.

[4] = test system: rats with memory loss induced by scopolamine; test: 8-arm radial maze test; type: in vivo, Sprague-Dawley rats; settings: selegiline 2 mg/kg/day and/or Ginkgo biloba extract 48 mg/kg/day p.o. for 3 weeks; scopolamine 6 mg/kg; compared with control group; Figure 2
Protocol: (§1) To evaluate effects on memory and learning functions, rats of each group were challenged with injection of scopolamine, a drug which cause memory loss and then, subjected to the following tests.
According to 01 ton and Samuelson methods[J. Exp. Psychol. Anim. Behav. Proc. 2, 97(1976)], 8-arm radial maze test system was used. That is, rats of each group were placed in the center of the eight 65-cm arms of the maze test system, which are radially stretched, and 45 mg each of pellet type feed was placed at the end of each arm. Rats were trained to visit the arm-ends to get the pellet type feeds. In real experiment, rats were pre-treated with intraperitoneal injection of scopolamine at a dose of 6 mg/kg as a challenge and subjected to the test after 30 minutes from injection.
Test was repeated for fifty(50) times. Smaller visit errors indicate gained improvements in memory and learning functions.
In order to induce memory loss, scopolamine was injected to the rats of both normal and test groups which received drug treatment for 3 weeks and then the rats were placed in the center of the 8-arm maze test system to record numbers of visit errors to the respective arms.

[5] = test system: pyramidal neuronal cells at CA1 (Ammon's horn) area of the hippocampus; test: Histopathological examination of hippocampus after complete ischemia and reperfusion (cresyl-violet staining); type: in vivo, Mongolian gerbil
Protocol: Gerbils of both control and test groups were anesthetized with injection of pentobarbital sodium at a dose of 50 mg/kg and the carotid arteries on both sides were closed for 5 minutes to induce complete ischemia. After 7 days from initiation of reperfusion, tissues were examined by means of cresyl-violet staining.
Tissue examination under cresyl-violet staining mentioned above was done as follows. Excised cerebellum was cut into slices using sliding microtome and the slices were treated sequentially with xylene and alcohol for five minutes and finally, soaked into distilled water for another 5 minutes. Then, the slice was stained with cresyl-violet which had been prepared in advance.
After staining, the slice was washed one time for 30 minutes with flowing water, followed by dehydrating in alcohol and subsequent two time washings with xylene for 10 minutes. Then, a cover glass was placed on and the specimen was examined under optical microscope.
In the cases of complete ischemia and subsequent reperfusion, biochemical changes will appear initially but some morphological changes may result after a few days. […]

MDA(Malondialdehyde) = test: Malondialdehyde measurement after partial ischemia and reperfusion; settings: cerebral cortex; 30 min ischemia, 3 hours reperfusion; 3-week treatment; mean±S.E. (n=6)
[6] = test system: rats with memory loss induced by scopolamine; test: Passive avoidance response test (step-through shuttle box); type: in vivo, Sprague-Dawley rats; settings: selegiline 2 mg/kg/day and/or Ginkgo biloba extract 48 mg/kg/day p.o. for 3 weeks; scopolamine 6 mg/kg; Figure 1
Protocol: as §1
Rats of each group were previously subjected to the adaptation training and subsequent exercises in a shuttle box of step-through type. In the real experiment, scopolamine at a dose of 6 mg/kg was given intraperitoneally and, after 30 minutes, passive avoidance responses were determined. Longer latency in response time indicate improved memory and learning fuctions.
In a step-through passive avoidance test, rats of both normal and test group treated with drugs for 3 weeks were put in a shuttle box and tested for latency time required for avoidance response after being given with scopolamine injection to induce memory loss and the results are shown in Figure 1.

[7] = test system: cerebral cortex of ischaemic rats; test: Dopamine and its metabolites concentrations in partial ischemia (HPLC-ECD); settings: vs control, Figure 3

SMILES: C#CCN(C)[C@H](C)Cc1ccccc1 [Selegiline]
- GSH peroxidase [1]: 2.04±0.22 units/mg protein
- ATP [2]: 1.12±0.04 µmol /g wet wt.
- Glucose [2]: 1.21 ±0.02 µmol/g wet wt.
- Lactate [2]: 5.42±0.15 µmol/g wet wt.
- Pyruvate [2]: 0.10±0.011 µmol/g wet wt.
- SOD activity [3]: 0.42±0.04 units/mg protein
- visit errors [4]: tended to decrease
- protection of pyramidal cells at CA1 Ammon's horn site of the hippocampus ([5]; 5 min complete ischemia, 7 days reperfusion, 3-week treatment, Figures 4e-4j): did not show any effects of significance for protection of the cells
- Nerve Cell Density ([5]; CA1 site of the hippocampus, mean ± standard error (n=3-4)): 45±10 /mm
- MDA (MDA(Malondialdehyde)): 1.80±0.22 nmol/mg protein
- avoidance response time (latency) [6]: significant increase
- content of dopamine ([7]; 3-week p.o. selegiline 2 mg/kg/day and/or Ginkgo biloba extract 48 mg/kg/day): significant increases
- contents of HVA(Homovanillic acid) ([7]; 3-week p.o. treatment): decreased significantly
